Results taken from patent US20230134377A1, “INSECT-REPELLENT PERSONAL-CARE COMPOSITION” (priority 2021, published 2023).

Tests used:
[1] = crystallization / phase stability of fatty acids in the MCT composition; format: physicochemical
Method: The first issue was one of phase stability, i.e., with higher levels of C12 fatty acid, the fatty acid precipitates out of the MCT matrix when essential oils are also present, leaving just the essential oils and the MCT carrier in solution.
The MCT as a dilutant at high enough percentage by weight in the composition prevents undesirable crystallization down to about 45-50° F. (with only C10 fatty acid, the composition is stable to about 12% concentration in the formula and with only C12 fatty acid, the composition is stable up to about 7%). It was also determined that the combination of either C8 or C10 with the C12 in a ratio of 1:4 or greater results in no undesirable crystallization.
A 100% substitution of the MCT with these yielded a clear product at cooler temperatures. […] Other co-solvents recognized by the present disclosure as useful in preventing crystallization of fatty acids from the composition include alcohols such as methanol, ethanol, propanol, and isopropanol. However, as indicated earlier, these alcohols are drying to the skin and should be avoided, if at all possible, in skin-care type repellent formulas.

[2] = test system: mosquito, biting fly, tick; experiment: repellent behaviour of C12 fatty acid on treated skin; format: in vivo; conditions: insect will land but not bite on treated skin
[3] = 100% substitution of the MCT, cooler temperatures

effect of co-solvent on crystallization when added to the composition [1]	appearance after substitution of the MCT by the co-solvent [1, 3]	concentration in the formula up to which the composition is stable (no crystallization) ([1]; only this fatty acid, in MCT as dilutant)	solubility in MCTs ([1]; without essential oils)	Structure (SMILES)	appearance after substitution of the MCT by the co-solvent ([1]; 25% substitution level)	type of repellency [2]
limit crystallization	clear product			CCCCCCCCCCCCCC(=O)OC(C)C [isopropyl myristate]	significant benefit but not to the total clarity	
		about 7%	completely soluble	CCCCCCCCCCCC(=O)O [C12 fatty acid, lauric acid]		close-proximity or contact repellent
limit crystallization	clear product			CCCCCCCCCC(=O)OC [methyl decanoate]	significant benefit but not to the total clarity	
